Assay: Hygroscopicity evaluation by DVS at 25° C.
Type: physicochemical
Protocol: Hygroscopicity of Compound 1, Form A and Compound 1, Form B was evaluated by DVS at 25° C.

- DVS Desorp. (%) (0% RH, 1st Desorp.): 0.01%
- DVS Sorp. (%) (0% RH, 2nd Sorp.): 0.01%
- DVS Desorp. (%) (10% RH, 1st Desorp.): 0.95%
- DVS Sorp. (%) (10% RH, 2nd Sorp.): 0.65%
- DVS Desorp. (%) (20% RH, 1st Desorp.): 1.03%
- DVS Sorp. (%) (20% RH, 2nd Sorp.): 0.96%
- DVS Desorp. (%) (30% RH, 1st Desorp.): 1.08%
- DVS Sorp. (%) (30% RH, 2nd Sorp.): 1.00%
- DVS Desorp. (%) (40% RH, 1st Desorp.): 1.14%
- DVS Sorp. (%) (40% RH, 1st Sorp.): 1.09%
- DVS Desorp. (%) (40% RH, 2nd Desorp.): 1.06%
- DVS Sorp. (%) (40% RH, 2nd Sorp.): 1.03%
- DVS Desorp. (%) (50% RH, 1st Desorp.): 1.18%
- DVS Sorp. (%) (50% RH, 1st Sorp.): 1.10%
- DVS Desorp. (%) (50% RH, 2nd Desorp.): 1.11%
- DVS Sorp. (%) (50% RH, 2nd Sorp.): 1.06%
- DVS Desorp. (%) (60% RH, 1st Desorp.): 1.21%
- DVS Sorp. (%) (60% RH, 1st Sorp.): 1.14%
- DVS Desorp. (%) (60% RH, 2nd Desorp.): 1.10%
- DVS Sorp. (%) (60% RH, 2nd Sorp.): 1.09%
- DVS Desorp. (%) (70% RH, 1st Desorp.): 1.26%
- DVS Sorp. (%) (70% RH, 1st Sorp.): 1.18%
- DVS Desorp. (%) (70% RH, 2nd Desorp.): 1.13%
- DVS Sorp. (%) (70% RH, 2nd Sorp.): 1.12%
- DVS Desorp. (%) (80% RH, 1st Desorp.): 1.28%
- DVS Sorp. (%) (80% RH, 1st Sorp.): 1.22%
- DVS Desorp. (%) (80% RH, 2nd Desorp.): 1.18%
- DVS Sorp. (%) (80% RH, 2nd Sorp.): 1.17%
- DVS Desorp. (%) (90% RH, 1st Desorp.): 1.33%
- DVS Sorp. (%) (90% RH, 1st Sorp.): 1.29%
- DVS Desorp. (%) (90% RH, 2nd Desorp.): 1.24%
- DVS Sorp. (%) (90% RH, 2nd Sorp.): 1.22%
- DVS Desorp. (%) (95% RH, 1st Desorp.): 1.38%
- DVS Sorp. (%) (95% RH, 1st Sorp.): 1.38%
- DVS Desorp. (%) (95% RH, 2nd Desorp.): 1.30%
- DVS Sorp. (%) (95% RH, 2nd Sorp.): 1.30%
- Hygroscopicity based on DVS results (listed as Compound 1, Form B): slightly hygroscopic
- XRPD after DVS test (listed as Compound 1, Form B): no form change
Structure (SMILES): O=C(O)[C@H]1C[C@@H](N2CCc3oc(-c4ccc(OCc5ccc(Cl)cc5)cc4)nc3C2)C1 [Form B, (1s,3s)-3-(2-(4-((4-chlorobenzyl)oxy)phenyl)-6,7-dihydrooxazolo[4,5-c]pyridin-5(4H)-yl)cyclobutane-1-carboxylic acid]
